The text below walks through data of the Kinase Knowledgebase extract (Sharma et al. 2016).

A value given as a limit tells only on which side of the number the result lay.

The target in the assay is CDK2 (human) (UniProt P24941). In words: Enzyme Assay.

Compound `CS(=O)(=O)c1cccc(Nc2nccc(-c3cccc4[nH]ccc34)n2)c1` displayed an IC50 of less than 5 µM.
The compound `Cc1cnc(Nc2cccc(S(C)(=O)=O)c2)nc1-c1cccc2[nH]ccc12` showed a 50% inhibitory concentration (IC50) of less than 5 µM.
Take `Cc1ccc2[nH]ccc2c1-c1ccnc(Nc2cccc(S(C)(=O)=O)c2)n1`: the IC50 was less than 5 µM.
To `OCCCn1ccc2c(-c3ccnc(Nc4cccc(Cl)c4)n3)cccc21` belongs less than 5 µM; to `Cc1cnc(Nc2cccc(S(N)(=O)=O)c2)nc1-c1cccc2[nH]ccc12`, less than 5 µM; to `Cn1ccc2c(-c3ccnc(Nc4cccc(Cl)c4)n3)cccc21`, less than 5 µM.
`CN(C)CCCn1ccc2c(-c3ccnc(Nc4cccc(Cl)c4)n3)cccc21` displayed a half-maximal inhibitory concentration (IC50) of less than 5 µM.
Consider `COc1cnc(Nc2cccc(S(N)(=O)=O)c2)nc1-c1cccc2[nH]ccc12`, for which the IC50 was less than 5 µM.
With `CC(C)(C)NC(=O)Cn1ccc2c(-c3ccnc(Nc4cccc(Cl)c4)n3)cccc21`, the half-maximal inhibitory concentration (IC50) is less than 5 µM.
As for `OCCn1ccc2c(-c3ccnc(Nc4cccc(Cl)c4)n3)cccc21`, the IC50 was less than 5 µM.
Regarding `CN(C)CCn1ccc2c(-c3ccnc(Nc4cccc(Cl)c4)n3)cccc21`, the IC50 is less than 5 µM.
`O=C(Cn1ccc2c(-c3ccnc(Nc4cccc(Cl)c4)n3)cccc21)NCC1CCCN1` (stereo unspecified) registered an IC50 of less than 5 µM.
In the case of `CNC(=O)Cn1ccc2c(-c3ccnc(Nc4cccc(Cl)c4)n3)cccc21`, the concentration for half-maximal inhibition (IC50) is less than 5 µM.
Then `CN(C)C(=O)Cn1ccc2c(-c3ccnc(Nc4cccc(Cl)c4)n3)cccc21`, with less than 5 µM; and `O=C(Cn1ccc2c(-c3ccnc(Nc4cccc(Cl)c4)n3)cccc21)NCCO`, with less than 5 µM.
With `NS(=O)(=O)c1cccc(Nc2ncc(F)c(-c3cccc4[nH]ccc34)n2)c1`, the 50% inhibitory concentration (IC50) was less than 5 µM.
